In the supplement of paper PMC11061612:

Key:
Experiment in all cases: combination Emax (second highest fraction inhibited in the dose matrix, 72 h); higher = more inhibition; extreme values may be limits of the assay
[1] = test system: NCI-H2405 (Lung Adenocarcinoma)
In short: (§1)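 Cell lines grown in DMEM/F12 or RPMI with 10% FBS were plated in 1536-well plates and held 24 hours at 37°C, 5% CO2 before 72 hours of exposure to two-drug dose matrices, with DMSO typically at 0.2%. CellTiter-Glo 2.0 luminescence gave viability, which was converted to inhibition. Vehicle wells were set to 0 and blank wells to 1. Combination Emax is the second-highest inhibition in the matrix, and Bliss excess is the observed combination effect minus the expected EA + EB − EA·EB, where EA and EB are the single-agent effects.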

[2] = test system: KP-2 (Pancreatic Carcinoma)
In short: as §1

[3] = test system: VMRC-LCD (Lung Adenocarcinoma)
In short: as §1

[4] = test system: KU-19-19 (Bladder Carcinoma)
In short: as §1

[5] = test system: H-EMC-SS (Chondrosarcoma)
In short: as §1

[6] = test system: JHH-7 (Hepatocellular Carcinoma)
In short: as §1

[7] = test system: OVISE (Ovarian Carcinoma)
In short: as §1

GI-1 (Glioblastoma) = test system: GI-1 (Glioblastoma)
In short: as §1

[8] = test system: EBC-1 (Squamous Cell Lung Carcinoma)
In short: as §1

[9] = test system: SCC-9 (Oral Cavity Carcinoma)
In short: as §1

[10] = test system: HuP-T3 (Pancreatic Carcinoma)
In short: as §1

[11] = test system: NCI-H1573 (Lung Adenocarcinoma)
In short: as §1

[12] = test system: SNU-C1 (Colorectal Carcinoma)
In short: as §1

[13] = test system: BV-173 (Chronic Myelogenous Leukemia)
In short: as §1

Row | Structure (SMILES) | combination Emax [1] | combination Emax [2] | combination Emax [3] | combination Emax [4] | combination Emax [5] | combination Emax [6] | combination Emax [7] | combination Emax (GI-1 (Glioblastoma)) | combination Emax [8] | combination Emax [9] | combination Emax [10] | combination Emax [11] | combination Emax [12] | combination Emax [13]
1 | CC(=O)Nc1cccc(-n2c(=O)n(C3CC3)c(=O)c3c(Nc4ccc(I)cc4F)n(C)c(=O)c(C)c32)c1 [Trametinib] + Cc1nc(-c2cn3c(n2)-c2ccc(-c4cnn(C(C)(C)C(N)=O)c4)cc2OCC3)n(C(C)C)n1 [Taselisib] (first compound max 1 µM, 7x7, partner max 10 µM) | 0.665 | 0.74 | 0.212 | 1 | 0.991 | 0.429 | 0.696 | 0.766 | 1 | 0.954 | 0.741 | 0.89 | 0.79 | 0.854
2 | CC(=O)c1c(C)c2cnc(Nc3ccc(N4CCNCC4)cn3)nc2n(C2CCCC2)c1=O [Palbociclib] + Cn1cnc2c(F)c(Nc3ccc(Br)cc3Cl)c(C(=O)NOCCO)cc21 [Selumetinib] (first compound max 10 µM, 7x7, partner max 10 µM) | 0.428 | 0.376 | 0.123 | 0.935 | 0.414 | 0.323 | 0.271 | 0.0397 | 0.944 | 0.397 | 0.385 | 0.565 | 0.598 | 0.733
3 | Cc1c2c(nn1C)CSCc1cc(n(C)n1)CSc1cc(c3ccccc3c1)OCCCc1c(C(=O)O)n(C)c3c-2c(Cl)ccc13 [AZD5991] + Cn1cnc2c(F)c(Nc3ccc(Br)cc3Cl)c(C(=O)NOCCO)cc21 [Selumetinib] (first compound max 1 µM, 7x7, partner max 3 µM) | 0.483 | 0.749 | 0.174 | 0.885 | 0.563 | 0.278 | 0.291 | 0.726 | 0.827 | 0.654 | 0.462 | 0.586 | 0.695 | 0.938
4 | Cc1cc2ncnn2cc1Nc1ncc2c(n1)n(C1CCOCC1)c(=O)n2C [AZD7648] + O=C(c1cc(Cc2n[nH]c(=O)c3ccccc23)ccc1F)N1CCN(C(=O)C2CC2)CC1 [Olaparib] (first compound max 10 µM, 7x7, partner max 10 µM) | 0.093 | 0.12 | 0.0108 | 0.251 | 0.321 | 0.159 | 0.19 | 0.261 | 0.202 | 0.0663 | 0.12 | 0.0771 | 0.158 | 0.897
5 | COc1cccc(OCCCN)c1-c1cc(Nc2cnc(C#N)cn2)n[nH]1 [Prexasertib] + CN(C)CCCOc1ccc(-c2ccc3ncc4c(c3c2)n(C2CCOCC2)c(=O)n4C)cn1 [AZD0156] (first compound max 1 µM, 7x7, partner max 1 µM) | 0.406 | 0.441 | 0.751 | 0.865 | 0.493 | 0.411 | 0.796 | 0.966 | 0.545 | 0.46 | 0.7 | 0.652 | 0.751 | 0.97
6 | C[C@@H]1COCCN1c1cc(C2([S@](C)(=N)=O)CC2)nc(-c2ccnc3[nH]ccc23)n1 [AZD6738] + O=C(c1cc(Cc2n[nH]c(=O)c3ccccc23)ccc1F)N1CCN(C(=O)C2CC2)CC1 [Olaparib] (first compound max 10 µM, 7x7, partner max 10 µM) | 0.28 | 0.142 | 0.562 | 0.767 | 0.419 | 0.339 | 0.663 | 0.926 | 0.487 | 0.314 | 0.705 | 0.531 | 0.347 | 0.988
7 | CN(C)CCCOc1ccc(-c2ccc3ncc4c(c3c2)n(C2CCOCC2)c(=O)n4C)cn1 [AZD0156] + CCN(CCO)CCCOc1ccc2c(Nc3cc(CC(=O)Nc4cccc(F)c4)[nH]n3)ncnc2c1 [AZD2811] (first compound max 1 µM, 7x7, partner max 1 µM) | 0.106 | 0.0724 | 0.545 | 0.349 | 0.367 | 0.143 | 0.113 | 0.411 | 0.171 | 0.186 | 0.0599 | 0.106 | 0.205 | 0.975
8 | COc1cccc(OCCCN)c1-c1cc(Nc2cnc(C#N)cn2)n[nH]1 [Prexasertib] + Cc1cc2ncnn2cc1Nc1ncc2c(n1)n(C1CCOCC1)c(=O)n2C [AZD7648] (first compound max 1 µM, 7x7, partner max 10 µM) | 0.412 | 0.57 | 0.749 | 0.836 | 0.458 | 0.458 | 0.716 | 0.987 | 0.588 | 0.49 | 0.716 | 0.668 | 0.759 | 0.964
9 | NC1(C(=O)N[C@@H](CCO)c2ccc(Cl)cc2)CCN(c2ncnc3[nH]ccc23)CC1 [Capivasertib] + CC(=O)c1c(C)c2cnc(Nc3ccc(N4CCNCC4)cn3)nc2n(C2CCCC2)c1=O [Palbociclib] (first compound max 10 µM, 7x7, partner max 10 µM) | 0.612 | 0.451 | 0.127 | 0.536 | 0.512 | 0.302 | 0.467 | 0.626 | 0.612 | 0.289 | 0.324 | 0.507 | 0.549 | 0.87
10 | CCN(CCO)CCCOc1ccc2c(Nc3cc(CC(=O)Nc4cccc(F)c4)[nH]n3)ncnc2c1 [AZD2811] + O=C(c1cc(Cc2n[nH]c(=O)c3ccccc23)ccc1F)N1CCN(C(=O)C2CC2)CC1 [Olaparib] (first compound max 1 µM, 7x7, partner max 10 µM) | 0.234 | 0.0558 | 0.545 | 0.381 | 0.236 | 0.218 | 0.272 | 0.328 | 0.216 | 0.19 | 0.163 | 0.152 | 0.276 | 0.982
11 | COc1cccc(OCCCN)c1-c1cc(Nc2cnc(C#N)cn2)n[nH]1 [Prexasertib] + CCc1c2c(nc3ccc(O)cc13)-c1cc3c(c(=O)n1C2)COC(=O)[C@]3(O)CC [SN-38] (first compound max 1 µM, 7x7, partner max 0.3 µM) | 0.626 | 0.837 | 0.769 | 0.959 | 0.574 | 0.736 | 0.689 | 1 | 0.953 | 0.561 | 0.855 | 0.777 | 0.745 | 0.967
12 | C[C@@H](c1ccc2nccn2c1)n1nnc2ncc(-c3cnn(C)c3)nc21 [Savolitinib] + Cc1c2c(nn1C)CSCc1cc(n(C)n1)CSc1cc(c3ccccc3c1)OCCCc1c(C(=O)O)n(C)c3c-2c(Cl)ccc13 [AZD5991] (first compound max 1 µM, 7x7, partner max 1 µM) | 0.0962 | 0.205 | 0.154 | 0.204 | 0.182 | 0.205 | 0.148 | 0.587 | 1 | 0.185 | 0.189 | 0.351 | 0.396 | 0.704
13 | COc1nnc2ccc(N3CCC(c4ccc(OCCN5CCN(C)C(=O)[C@H]5C)cc4)CC3)nn12 [AZD5153] + C=CCn1c(=O)c2cnc(Nc3ccc(N4CCN(C)CC4)cc3)nc2n1-c1cccc(C(C)(C)O)n1 [AZD1775] (first compound max 1 µM, partner max 1 µM) | 0.429 | 0.437 | 0.943 | 0.731 | 0.23 | 0.316 | 0.767 | 0.973 | 0.802 | 0.518 | 0.584 | 0.637 | 0.546 | 0.931
14 | Cc1c2c(nn1C)CSCc1cc(n(C)n1)CSc1cc(c3ccccc3c1)OCCCc1c(C(=O)O)n(C)c3c-2c(Cl)ccc13 [AZD5991] + CN(C)CCCOc1ccc(-c2ccc3ncc4c(c3c2)n(C2CCOCC2)c(=O)n4C)cn1 [AZD0156] (first compound max 1 µM, 7x7, partner max 1 µM) | 0.228 | 0.18 | 0.2 | 0.253 | 0.431 | 0.14 | 0.283 | 0.774 | 0.251 | 0.269 | 0.213 | 0.394 | 0.424 | 0.95
15 | C[C@@H](c1ccc2nccn2c1)n1nnc2ncc(-c3cnn(C)c3)nc21 [Savolitinib] + CC1(C)CCC(CN2CCN(c3ccc(C(=O)NS(=O)(=O)c4ccc(NCC5CCOCC5)c([N+](=O)[O-])c4)c(Oc4cnc5[nH]ccc5c4)c3)CC2)=C(c2ccc(Cl)cc2)C1 [Venetoclax] (first compound max 1 µM, 7x7, partner max 1 µM) | 0.038 | 0.148 | 0.128 | 0.132 | 0.183 | 0.114 | 0.0991 | 0.317 | 0.968 | 0.116 | 0.0903 | 0.203 | 0.133 | 0.781
16 | NC1(C(=O)N[C@@H](CCO)c2ccc(Cl)cc2)CCN(c2ncnc3[nH]ccc23)CC1 [Capivasertib] + CCN(CCO)CCCOc1ccc2c(Nc3cc(CC(=O)Nc4cccc(F)c4)[nH]n3)ncnc2c1 [AZD2811] (first compound max 10 µM, 7x7, partner max 1 µM) | 0.329 | 0.132 | 0.59 | 0.515 | 0.488 | 0.294 | 0.41 | 0.754 | 0.395 | 0.275 | 0.249 | 0.323 | 0.588 | 0.915
17 | CN(CCO)CC[C@H](CSc1ccccc1)Nc1ccc(S(=O)(=O)NC(=O)c2ccc(N3CCC([C@@H](O)c4ccccc4-c4ccc(Cl)cc4)CC3)cc2)cc1S(=O)(=O)C(F)(F)F [AZD4320] + C[C@@H]1COCCN1C2=NC(=NC(=C2)C3(CC3)[S@](=N)(=O)C)C4=C5C=CNC5=NC=C4 [AZD6738] (first compound max 1 µM, 7x7, partner max 10 µM) | 0.415 | 0.897 | 0.611 | 0.878 | 0.692 | 0.524 | 0.961 | 0.982 | 0.935 | 0.466 | 0.706 | 0.634 | 0.658 | 0.953
